56 compounds from ChEMBL document CHEMBL1201862, “PubChem BioAssay data set” (2004) can be followed below.

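Growth conditions: 96-well plates. Treatment: test compound, 48 hours, 5 concentrations. Analysis: linear interpolation between bracketing concentrations; unreached endpoints set to highest concentration. Abbreviation: GI50, concentration required for 50% inhibition of growth.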 Calls of active or inactive are those of the source. No stated cut-off is given here; in the data, active = GI50 up to about 1.1 µM and inactive = higher.

Test systems include T47D; KM-20L2; XF498; DMS-273; LXFL 529; M19-MEL; DLD-1; DMS-114.
Holding throughout (assay): NCI anticancer screen, dose series, 48 h

For `Clc1ccc2nc3c(c(-c4ccccc4)nn3-c3ccccc3)c(-c3ccccc3)c2c1`, the GI50 with T47D is > 100 µM (inactive).
As to `N=C(N)SC(c1ccccc1)c1ccccc1`, the GI50 with T47D is 6.32 µM (inactive).
For `O=C(c1cc(Br)ccc1O)c1cc(Br)ccc1O`, the GI50 in the experiment on T47D was 14.2 µM (inactive).
For the compound `Cc1nc2ccccc2c(=O)n1NC(=O)c1ccccc1[N+](=O)[O-]`, the GI50 with T47D is > 100 µM (inactive).
For the compound `Cc1c(C(=O)OCc2ccccc2)[n+]([O-])c2cc(Cl)c(Cl)cc2[n+]1[O-]`, the GI50 in the experiment on T47D is 5.48 µM (inactive).
Turning to `CCOC(=O)c1c(N)sc2c1C(C(=O)OCC)CC2` (stereo not drawn), the GI50 with T47D was 18.2 µM (inactive).
`O=C1C2CCCCC2C(=O)N1n1c(Cc2ccccc2)n[nH]c1=O` (stereo not drawn): in the experiment with T47D, the GI50 is > 100 µM (inactive).
For the compound `Nc1ncnc2nc(N3CCN(CCO)CC3)[nH]c12`, in the experiment with T47D, the GI50 was > 100 µM (inactive).
Take `COc1ccc(/C=N/n2c(-c3ccccc3)n[nH]c2=O)c(OC)c1`: the GI50 in the experiment with T47D was 50 µM (inactive).
As for `[N-]=[N+]=Nc1ccc(NCCCCCC(=O)ON2C(=O)CCC2=O)c([N+](=O)[O-])c1`, the GI50 with T47D was 62.1 µM (inactive).
Regarding `CCc1[nH]nc(C(N)=O)c1/N=N/N(C)C`, the GI50 in the experiment with T47D was 68.4 µM (inactive).
For the compound `COc1nc2c(c(=O)n1C)NC(C(O)C(O)CO)C=N2` (stereo not drawn), the GI50 with T47D was > 10 µM (inactive).
As for `CCn1c(SCC(=O)NNC(=S)Nc2ccc(F)cc2)nc2ccccc2c1=O`, the GI50 in the experiment on T47D was 57.7 µM (inactive).
Same read-out and setting: for `O=C1c2cc(Cl)ccc2N=C(NCCCl)C2CSCN12` (stereo not drawn) the value was > 100 µM (inactive); for `CC1=NOC2(C1)C(=O)Nc1ccccc12` (stereo not drawn), > 100 µM (inactive).
With `O=C1Cc2c(-c3cccs3)cc(-c3ccccc3)nc2-c2ccccc2N1`, the GI50 in the experiment with T47D is 26.4 µM (inactive).
`OC1C2CCC1C1C3C=CC(C3)C21` (stereo not drawn): the GI50 in the experiment with KM-20L2 is 77.3 µM (inactive); with XF498, > 100 µM (inactive); in the experiment on DMS-273 it was 94.4 µM (inactive); in the experiment on LXFL 529 it was 96.4 µM (inactive); in the experiment with M19-MEL, > 100 µM (inactive); in the experiment with DLD-1, > 100 µM (inactive). In the experiment on DMS-114, the GI50 is 59.6 µM (inactive).
Turning to `O=c1c2cccnc2[nH]c2ccc3scnc3c12`, the GI50 with T47D was > 10 µM (inactive).
Consider `COc1ccc2c(c1)C(=O)Cc1ccccc1CC2`, for which the GI50 in the experiment on KM-20L2, in the experiment on XF498, with DMS-273, in the experiment with LXFL 529, in the experiment with M19-MEL and with DLD-1 was > 100 µM (inactive) each time. Moreover, in the experiment with DMS-114, the GI50 is > 100 µM (inactive).
For `CN(C)c1ccc(/C=C(\NC(=O)c2ccccc2)C(=O)Nc2cccc(C(=O)NCCCO)c2)cc1`, in the experiment with T47D, the GI50 is > 100 µM (inactive).
For the compound `COC(=O)C(/C(=N/N)C(=O)Nc1cc(Cl)c(Cl)cc1Cl)c1nc2ccc(Cl)cc2nc1O` (stereo not drawn), the GI50 with T47D is > 100 µM (inactive).
`COC(=O)c1c2c(cc3c1CC1(Cc4cc5c(c(C(C)=O)c4C1)CCC5)C3)CCC2` (stereo not drawn): the GI50 in the experiment on XF498 was 31.3 µM (inactive); with DMS-273 it was 29.9 µM (inactive); with LXFL 529, 64.3 µM (inactive); in the experiment with M19-MEL, > 100 µM (inactive); with DLD-1 it was > 100 µM (inactive); with DMS-114 it was 61.5 µM (inactive).
Consider `COC(=O)[C@@H]1C[C@@]2(C3C=CN(C(=O)C(F)(F)F)C=C3)c3ccccc3N(C(=O)C(F)(F)F)[C@H]2N1C(=O)OC`, for which, in the experiment with T47D, the GI50 is 46.7 µM (inactive).
Regarding `O=C1CC2C=CC1C2CO` (stereo not drawn), the GI50 in the experiment on KM-20L2, in the experiment on DMS-273, in the experiment with LXFL 529, in the experiment on M19-MEL, with DLD-1 and in the experiment on DMS-114 was > 100 µM (inactive) throughout.
In the case of `Cn1nc(-c2ccccc2NC(=O)C(F)(F)F)c(=O)n(C)c1=S`, the GI50 was 18.9 µM (inactive) in the experiment with XF498; 24.4 µM (inactive) in the experiment on DMS-273; 21.7 µM (inactive) with LXFL 529; 18.9 µM (inactive) with M19-MEL; > 100 µM (inactive) with DLD-1; 14 µM (inactive) in the experiment on DMS-114.
Consider `COc1ccc(-c2ccccc2)c2[nH]c3c(c12)CCNC3=O`, for which the GI50 with KM-20L2, in the experiment on DMS-273, in the experiment on LXFL 529, with M19-MEL and in the experiment with DLD-1 was > 100 µM (inactive) in each case.
With `C/C(=N\Nc1nc2ccccc2s1)c1ccncn1`, the GI50 in the experiment on T47D was 0.612 µM (active).
Regarding `C[C@]12CC[C@@H]3c4ccc(OC(=O)c5ccccc5)cc4CC[C@H]3[C@@H]1CCC2OC(=O)c1cccc2c(=O)c3ccccc3[nH]c12` (stereo partly drawn), the GI50 in the experiment on T47D was 26.4 µM (inactive).
In the case of `COC(=O)CCC(=O)N1C/C(=C\c2ccccc2)C(=O)/C(=C/c2ccccc2)C1`, the GI50 with KM-20L2 is 2.24 µM (inactive); in the experiment with XF498, 5.87 µM (inactive); in the experiment with DMS-273, 0.708 µM (active); in the experiment with LXFL 529, 2.09 µM (inactive); in the experiment on M19-MEL, 2.39 µM (inactive); in the experiment with DLD-1, 2.04 µM (inactive). The GI50 in the experiment on DMS-114 was 1.73 µM (inactive).
Turning to `C[N+]1([O-])C2CCC1CC(OC(=O)C(CO)c1ccccc1)C2` (stereo not drawn), in the experiment on T47D, the GI50 is > 100 µM (inactive).
Take `COC(=O)C1=C(OC(=O)/C(=C/c2ccccc2)c2ccccc2)C(C(=O)OC)[C@@]2(O)[C@@H](C(=O)OC)[C@H](C)C[C@@H]1[C@@H]2C(=O)OC` (stereo partly drawn): the GI50 with T47D is > 100 µM (inactive).
Consider `Cc1ccc(C(=O)Nc2ccc(CP(=O)(O)O)cc2CP(=O)(O)O)cc1NC(=O)c1cccc(N)c1`, for which the GI50 in the experiment on T47D is > 100 µM (inactive).
On the same count and under the same terms, for `CC(C)(C)OC(=O)N1C(OP(=O)(Oc2ccccc2)Oc2ccccc2)=CSc2ccccc21` the value was 27.4 µM (inactive).
As for `c1ccc2c(c1)ccc1cc3cc(NCCCCNc4ccc5nc6c(ccc7ccccc76)cc5c4)ccc3nc12`, in the experiment on T47D, the GI50 is 0.455 µM (active).
For the compound `COc1ccc2c(c1)C(=O)CC(N)C2` (stereo not drawn), the GI50 in the experiment on T47D was > 100 µM (inactive).
As to `COc1ccc(NC(=O)CSc2nnc(-c3ccc(NC(C)=O)cc3)o2)cc1`, the GI50 was 19.5 µM (inactive) with KM-20L2; 19.3 µM (inactive) in the experiment on DMS-273; 13.6 µM (inactive) in the experiment with LXFL 529; 21 µM (inactive) in the experiment on M19-MEL; 19.3 µM (inactive) in the experiment on DLD-1; 5.6 µM (inactive) in the experiment on DMS-114.
With `CN1C2(c3ccccc3)C(C(=O)c3ccccc3)=C(C(=O)c3ccccc3)C1(c1ccccc1)c1c(-c3ccccc3)sc(-c3ccccc3)c12`, the GI50 in the experiment on KM-20L2, with DMS-273, in the experiment with LXFL 529, with M19-MEL, with DLD-1 and with DMS-114 was > 100 µM (inactive) in each case.
In the case of `O=C(NCCCCN(CCCNC(=O)C(F)(F)F)Cc1ccc2ccccc2c1)C(F)(F)F`, the GI50 in the experiment on T47D is 17.7 µM (inactive).
As to `NC(=O)/C=C/C(=O)O`, the GI50 in the experiment on DMS-273, in the experiment on LXFL 529, in the experiment with M19-MEL, in the experiment with DLD-1 and with DMS-114 was > 5000 µM (inactive) throughout.
In the case of `O=C(CSCC(=O)N/N=C\c1cc(Br)cc(Br)c1O)N/N=C\c1cc(Br)cc(Br)c1O`, in the experiment on T47D, the GI50 was 32.1 µM (inactive).
For the compound `CC(NNC(=O)CC(=O)N(C(=O)c1ccccc1)c1ccc(Cl)cc1)c1cc2ccccc2oc1=O` (stereo not drawn), the GI50 with T47D was > 10 µM (inactive).
In the case of `O=C1CCC2c3ccccc3NCN12` (stereo not drawn), in the experiment on T47D, the GI50 was > 100 µM (inactive).
Regarding `O=C1OCC(c2ccc(Cl)cc2)=C1Cl`, the GI50 with T47D was 34.7 µM (inactive).
Consider `O=C(N/N=C/c1ccc(Br)cc1)N/N=C/c1ccc(Br)cc1`, for which the GI50 in the experiment on T47D was 4.38 µM (inactive).
Take `C/C=C/C(C#N)(/C=C/c1ccccc1)OP1(=O)OC(c2ccccc2)C(C)N1C` (stereo not drawn): the GI50 in the experiment on T47D was 20.7 µM (inactive).
As to `COc1cc2cccc(NC(=O)c3cc(OC)c(OC)c(OC)c3Br)c2cc1OC`, the GI50 is 25.7 µM (inactive) in the experiment on KM-20L2; 2.4 µM (inactive) with XF498; 2.52 µM (inactive) in the experiment on LXFL 529; 10.2 µM (inactive) in the experiment with M19-MEL; 24.8 µM (inactive) in the experiment with DLD-1; 3.12 µM (inactive) in the experiment on DMS-114.
As for `O=C(CNC(=O)OCc1ccccc1)Oc1ccccc1`, the GI50 in the experiment on KM-20L2, in the experiment on XF498, in the experiment on DMS-273, with LXFL 529, with M19-MEL and with DLD-1 was > 100 µM (inactive) each time. Besides, the GI50 in the experiment on DMS-114 is > 100 µM (inactive).
`COCCOCOc1ccc(OCOCCOC)c2c1C(=O)c1ccccc1C2=O`: the GI50 is 32 µM (inactive) in the experiment with KM-20L2; > 100 µM (inactive) in the experiment with XF498; 49.1 µM (inactive) in the experiment on DMS-273; 16.7 µM (inactive) in the experiment with M19-MEL; 26.3 µM (inactive) in the experiment on DLD-1; 3.19 µM (inactive) in the experiment with DMS-114.
`CCN(CC(COc1ccc2c(c1)[n+]([O-])nc(N)[n+]2[O-])OC(C)=O)C(C)=O` (stereo not drawn): the GI50 with T47D is 33.9 µM (inactive).
Take `COc1cccc(/C=N/NC(N)=O)c1O`: the GI50 with KM-20L2 was > 100 µM (inactive).
On to `COc1cc2c(cc1O)[C@H](C)C(c1ccc(OC)c(OC)c1)O2` (stereo partly drawn), for which the GI50 was 18.8 µM (inactive) in the experiment on KM-20L2; 10.1 µM (inactive) in the experiment with XF498; 3.84 µM (inactive) in the experiment on DMS-273; 9.35 µM (inactive) in the experiment with LXFL 529; 4.18 µM (inactive) in the experiment on M19-MEL; 8.11 µM (inactive) with DLD-1. For the same compound, the GI50 in the experiment with DMS-114 was 3.56 µM (inactive).
Consider `Cc1nc2cccc([N+](=O)[O-])c2n1CCCN(C)C`, for which the GI50 in the experiment on T47D is > 100 µM (inactive).
Consider `COc1ccc(Cl)cc1NC(=O)c1cccc([N+](=O)[O-])c1O`, for which the GI50 was 15 µM (inactive) in the experiment on KM-20L2; 9.25 µM (inactive) in the experiment with T47D; 8.43 µM (inactive) in the experiment on LXFL 529; 9.79 µM (inactive) in the experiment with M19-MEL; 8.95 µM (inactive) in the experiment on DLD-1.
`O=C(c1ccco1)N1CCN(C(=O)c2ccco2)C1=S`: the GI50 in the experiment on T47D is 4.78 µM (inactive).
As to `O=S(=O)(N/C(=N\O)Nc1ccc(Cl)cc1)c1cc(C(F)(F)F)cc(C(F)(F)F)c1`, the GI50 in the experiment on T47D is 22.4 µM (inactive).
For the compound `Cc1coc2c1C(=O)C(=O)c1c-2ccc2c1CCCC2(C)C` [TANSHINONE IIA], the GI50 in the experiment with T47D was 2.96 µM (inactive).
